Experimental findings from patent US8592383B2, “Cycloalkyl-fused tetrahydroquinolines as CRTH2 receptor modulators” (Merck Sharp & Dohme Corp., priority 2011, dated 2013) are described below.

SMILES strings stand for the structures. Where two headings read alike, the source gives them in different places.

Assay [1] concerns the target T1, hCRTH2 (Homo sapiens, UniProt Q9Y5Y4).
T1 sequence (Q9Y5Y4 1-395): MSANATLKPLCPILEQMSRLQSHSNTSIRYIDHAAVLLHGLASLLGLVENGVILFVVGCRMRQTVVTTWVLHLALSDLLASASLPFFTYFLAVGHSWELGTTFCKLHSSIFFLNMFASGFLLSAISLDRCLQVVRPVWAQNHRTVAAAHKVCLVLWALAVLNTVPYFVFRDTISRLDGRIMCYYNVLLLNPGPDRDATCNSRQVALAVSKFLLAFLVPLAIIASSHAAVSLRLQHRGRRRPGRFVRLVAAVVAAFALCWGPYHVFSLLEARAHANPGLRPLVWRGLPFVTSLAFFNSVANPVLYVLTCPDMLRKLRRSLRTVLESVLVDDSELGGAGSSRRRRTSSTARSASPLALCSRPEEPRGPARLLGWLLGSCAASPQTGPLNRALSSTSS
Description: biochemical. Particulars: Ki, Radioligand Binding Assay A; 3.0 nM [3H]PGD2, HEK-hCRTH2 membranes.
Description: Competing ligands were diluted in dimethylsulfoxide (Me2SO) that was kept constant at 1% (v/v) of the final incubation volume. The reaction was initiated by the addition of 8-20 g of membrane protein prepared from a human embryonic kidney (HEK)-hCRTH2 cell line. Total and non-specific binding were determined in the absence and the presence of 10 μM PGD2, respectively. Under these conditions, specific binding (total minus non-specific) of the radioligand to the receptor reached equilibrium within 50 min and was stable up to 180 min. The reaction was routinely conducted for 60 min at room temperature and terminated by rapid filtration through prewetted (0.3% polyethyleneimine) 96-well printed Filtermate™ (Wallac) using a Tomtec® harvester (Hamden, Conn.). After washing with cold buffer, the filter was dried for 2 minutes in microwave, and Meltilex Scintillator sheet (Wallac) was melted on for 2 min.

In assay [2] the target is T1, hCRTH2. Set-up: expressed in transfected cells; host or cells: HEK (human embryonic kidney) cells expressing hCRTH2. Particulars: Radioligand Binding Assay B. As for the experimental part:
The filters were then washed with 4 mL of the same buffer and residual radioligand bound to the filter was determined by liquid scintillation counting following equilibration in 25 μl Ultima Gold F™ (Unifilter) (Packard).

A word on the Ki: it is the equilibrium dissociation constant of an inhibitor or competing ligand from its target. `O=C(O)CCC(=O)N(C1CC1)C1c2ccccc2N(C(=O)c2ccco2)C2CCCC21` (racemic) [17BL, 4-(cyclopropyl(cis,cis-4-(furan-2-carbonyl)-2,3,3a,4,9,9a-hexahydro-1H-cyclopenta[b]quinolin-9-yl)amino)-4-oxobutanoic acid] came in with a Ki on hCRTH2 [1] of 36 nM. That is a double-digit nanomolar value. `O=C(O)c1ccccc1C(=O)N(C1CC1)[C@@H]1c2ccccc2N(C(=O)c2ccc(OC(F)(F)F)cc2)[C@@H]2CCC[C@@H]21` (racemic) [17Ci, 2-[[cyclopropyl[cis,cis-2,3,3a,4,9,9a-hexahydro-4-[4-(trifluoromethoxy)benzoyl]-1H-cyclopenta[b]quinolin-9-yl]amino]carbonyl]benzoic acid] showed a Ki at hCRTH2 [1] of 838 nM. The compound `CN(C(=O)CCC(=O)O)C1c2ccccc2N(C(=O)OCc2ccccc2)C2CCCC12` (racemic) [17U, 4-(phenylmethyl) cis,cis-9-[(3-carboxy-1-oxopropyl)methylamino]-1,2,3,3a,9,9a-hexahydro-4H-cyclopenta[b]quinoline-4-carboxylate] yielded a Ki on hCRTH2 [1] of 605 nM. Still for that read-out and setting: as for `CCOc1cnc(-c2ccc(C(=O)N3c4ccccc4C(N(C(=O)CCC(=O)O)C4CC4)C4CCCC43)cc2)nc1` (racemic) [18P, 4-[cyclopropyl[cis,cis-4-[4-(5-ethoxy-2-pyrimidinyl)benzoyl]-2,3,3a,4,9,9a-hexahydro-1H-cyclopenta[b]quinolin-9-yl]amino]-4-oxobutanoic acid], the figure is 28.5 nM; as for `O=C(O)CCC(=O)N(C1CC1)C1c2ccccc2N(C(=O)c2ccc(-c3cncs3)cc2)C2CCCC21` (racemic) [18o, 4-[cyclopropyl[cis,cis-2,3,3a,4,9,9a-hexahydro-4-[4-(5-thiazolyl)benzoyl]-1H-cyclopenta[b]quinolin-9-yl]amino]-4-oxobutanoic acid], 9.8 nM. In turn, `COC(=O)CCC(=O)N(C1CC1)C1c2ccc(F)cc2N(C(=O)OCc2ccccc2)C2CCCC21` (racemic) [compound 15, Benzyl cis,cis-9-[cyclopropyl(4-methoxy-4-oxobutanoyl)amino]-6-fluoro-1,2,3,3a,9,9a-hexahydro-4H-cyclopenta[b]quinoline-4-carboxylate] displayed an inhibition constant (Ki) at hCRTH2 [2] (Table B, rated A-D) of 20.1 to 200 nM. For `O=C(O)CCC(=O)N(C1CC1)[C@@H]1c2ccc(F)cc2N(C(=O)OCc2ccccc2)[C@@H]2CCC[C@@H]21` (racemic) [compound 16, 4-[{cis,cis-4-[(Benzyloxy)carbonyl]-6-fluoro-2,3,3a,4,9,9a-hexahydro-1H-cyclopenta[b]quinolin-9-yl}(cyclopropyl)amino]-4-oxobutanoic acid], the Ki was 2.7 nM at hCRTH2 [2] (0.7 nM [3H]PGD2, HEK-hCRTH2 membranes) and 1 to 5 nM at hCRTH2 [2] (Table B, rated A-D).

In the case of `CC(C)OC(=O)N1c2ccccc2C(N(C(=O)CCC(=O)O)C2CC2)C2CCCC21` (racemic) [compound 21, 4-(Cyclopropyl{cis,cis-4-[(1-methylethoxy)carbonyl]-2,3,3a,4,9,9a-hexahydro-1H-cyclopenta[b]quinolin-9-yl}amino)-4-oxobutanoic acid], the Ki at hCRTH2 [2] (Table B, rated A-D) was 20.1 to 200 nM. In turn, `O=C(O)CCC(=O)N(C1CC1)[C@@H]1c2ccccc2N(C(=O)N2CCc3ccccc32)[C@@H]2CCC[C@@H]21` (racemic) [compound 23, 4-{Cyclopropyl[cis,cis-4-(2,3-dihydro-1H-indol-1-ylcarbonyl)-2,3,3a,4,9,9a-hexahydro-1H-cyclopenta[b]quinolin-9-yl]amino}-4-oxobutanoic acid] showed a Ki at hCRTH2 [2] (Table B, rated A-D) of 20.1 to 200 nM. The same measure, in the same setting: as for `O=C(O)CCC(=O)N(C1CC1)[C@@H]1c2ccccc2N(S(=O)(=O)c2ccccc2)[C@@H]2CCC[C@H]12` (racemic) [compound 24, 4-[Cyclopropyl[cis,cis-2,3,3a,4,9,9a-hexahydro-4-(phenylsulfonyl)-1H-cyclopenta[b]quinolin-9-yl]amino]-4-oxobutanoic acid], the figure is 20.1 to 200 nM; as for `O=C(O)CCC(=O)N(C1CC1)[C@@H]1c2ccccc2N(C(=O)OCc2ccccc2)[C@@H]2CC[C@@H]21` (racemic) [compound 25, 4-[{cis,cis-3-[(Benzyloxy)carbonyl]-1,2,2a,3,8,8a-hexahydrocyclobuta[b]quinolin-8-yl}(cyclopropyl)amino]-4-oxobutanoic acid], 20.1 to 200 nM. Consider `COC(=O)CCC(=O)N(C1CC1)C1c2ccccc2N(C(=O)c2ccc(OC(F)(F)F)cc2)C2CCC21` (racemic) [compound 26, Methyl 4-{cyclopropyl[cis,cis-3-{[4-(trifluoromethoxy)phenyl]carbonyl}-1,2,2a,3,8,8a-hexahydrocyclobuta[b]quinolin-8-yl]amino}-4-oxobutanoate], for which the Ki on hCRTH2 [2] (Table B, rated A-D) was 20.1 to 200 nM. At hCRTH2 [2] (Table B, rated A-D), `O=C(O)CCC(=O)N(C1CC1)[C@@H]1c2ccccc2N(C(=O)OCc2ccccc2)[C@@H]2CCCC[C@@H]21` (racemic) [compound 28, 4-[{cis,cis-10-[(Benzyloxy)carbonyl]-1,2,3,4,4a,9,9a,10-octahydroacridin-9-yl}(cyclopropyl)amino]-4-oxobutanoic acid] gave a Ki of 20.1 to 200 nM. Still for that read-out and setting: with `O=C(c1ccccc1)N1c2ccccc2[C@@H](N(C(=O)OCCO)C2CC2)[C@H]2CCC[C@H]21` (racemic) [compound 29, 2-Hydroxyethyl cyclopropyl[cis,cis-4-(phenylcarbonyl)-2,3,3a,4,9,9a-hexahydro-1H-cyclopenta[b]quinolin-9-yl]carbamate] the figure was 201 to 7500 nM. Consider `O=C(O)COC(=O)N(C1CC1)[C@@H]1c2ccccc2N(C(=O)c2ccccc2)[C@@H]2CCC[C@@H]21` (racemic) [compound 30, ({Cyclopropyl[cis,cis-4-(phenylcarbonyl)-2,3,3a,4,9,9a-hexahydro-1H-cyclopenta[b]quinolin-9-yl]carbamoyl}oxy)acetic acid], for which the Ki at hCRTH2 [2] (Table B, rated A-D) was in the range of 5.1 to 20 nM. With `O=C(O)COC(=O)N(C1CC1)[C@@H]1c2ccccc2N(C(=O)c2ccc(OC(F)(F)F)cc2)[C@@H]2CCC[C@@H]21` (racemic) [compound 31, ({Cyclopropyl[cis,cis-4-{[4-(trifluoromethoxy)phenyl]carbonyl}-2,3,3a,4,9,9a-hexahydro-1H-cyclopenta[b]quinolin-9-yl]carbamoyl}oxy)acetic acid], the Ki on hCRTH2 [2] (Table B, rated A-D) fell in the range of 5.1 to 20 nM. On to `O=C(O)CCC(=O)N(C1CC1)[C@@H]1c2ccccc2N(c2nnc(Cc3ccccc3)o2)[C@@H]2CCC[C@@H]21` (racemic) [compound 36, 4-{[cis-4-(5-Benzyl-1,3,4-oxadiazol-2-yl)-2,3,3a,4,9,9a-hexahydro-1H-cyclopenta[b]quinolin-9-yl](cyclopropyl)amino}-4-oxobutanoic acid], for which, at hCRTH2 [2] (Table B, rated A-D), the Ki lay within 20.1 to 200 nM. At hCRTH2 [2] (Table B, rated A-D), `O=C(O)COC(=O)N(C1CC1)C1c2ccccc2N(c2nnc(-c3ccccc3)o2)C2CCCC21` (racemic) [compound 37, ({Cyclopropyl[cis,cis-4-(5-phenyl-1,3,4-oxadiazol-2-yl)-2,3,3a,4,9,9a-hexahydro-1H-cyclopenta[b]quinolin-9-yl]carbamoyl}oxy)acetic acid] displayed an inhibition constant (Ki) of 5.1 to 20 nM. On hCRTH2 [2] (Table B, rated A-D), `CCN(c1nc(C(=O)O)cs1)[C@@H]1c2ccccc2N(C(=O)OCc2ccccc2)[C@@H]2CCC[C@H]12` (racemic) [compound 39, 2-[{cis,cis-4-[(Benzyloxy)carbonyl]-2,3,3a,4,9,9a-hexahydro-1H-cyclopenta[b]quinolin-9-yl}(ethyl)amino]-1,3-thiazole-4-carboxylic acid] yielded a Ki of 20.1 to 200 nM.

Take `O=C(O)CCCN(C1CC1)[C@@H]1c2ccccc2N(C(=O)c2ccc(OC(F)(F)F)cc2)[C@@H]2CCC[C@@H]21` (racemic) [compound 44, 4-[Cyclopropyl[cis,cis-2,3,3a,4,9,9a-hexahydro-4-[4-(trifluoromethoxy)benzoyl]-1H-cyclopenta[b]quinolin-9-yl]amino]butanoic acid]: the Ki at hCRTH2 [1] turned out to be 2.54 nM. Consider `O=C(O)CCC(=O)N(C1CC1)C1c2ccc(Cl)cc2N(C(=O)OCc2ccccc2)C2CCCC21` (single isomer, unassigned) [9A, 4-(phenylmethyl) cis,cis-[(3-carboxy-1-oxopropyl)cyclopropylamino]-6-chloro-1,2,3,3a,9,9a-hexahydro-4H-cyclopenta[b]quinoline-4-carboxylate], for which, on hCRTH2 [1], the inhibition constant (Ki) turned out to be 4.7 nM. This Ki is about 1.9-fold higher than that of the compound before.

Consider `O=C(O)CCC(=O)N(C1CCC1)C1c2ccc(Cl)cc2N(C(=O)c2ccc(F)c(F)c2)C2CCCC21` (single isomer, unassigned) [17Co, 4-[[cis,cis-6-chloro-4-(3,4-difluorobenzoyl)-2,3,3a,4,9,9a-hexahydro-1H-cyclopenta[b]quinolin-9-yl]cyclobutylamino]-4-oxobutanoic acid], for which the Ki on hCRTH2 [1] is 10.9 nM. As to `O=C(O)CCC(=O)N(C1CCC1)[C@@H]1c2ccccc2N(C(=O)c2cccc(OC(F)(F)F)c2)[C@@H]2CCC[C@@H]21` (single isomer, unassigned) [17DA, 4-[cyclobutyl[cis,cis-2,3,3a,4,9,9a-hexahydro-4-[3-(trifluoromethoxy)benzoyl]-1H-cyclopenta[b]quinolin-9-yl]amino]-4-oxobutanoic acid], the inhibition constant (Ki) on hCRTH2 [1] amounted to 34.2 nM.

Turning to `CCN(C(=O)CCC(=O)O)C1c2ccccc2N(C(=O)OCc2cc(F)cc(F)c2)C2CCCC12` (single isomer, unassigned) [22A, 4-[(3,5-difluorophenyl)methyl] cis, cis-[(3-carboxy-1-oxopropyl)ethylamino]-1,2,3,3a,9,9a-hexahydro-4H-cyclopenta[b]quinoline-4-carboxylate], affinity at hCRTH2 [1] was put at a Ki of 1080 nM.
